pIC50: −log10 of the molar value.
What was measured:
[1] = target: T1, Gastrin/cholecystokinin type B receptor (Mus musculus, UniProt P56481); assay: Inhibitory activity against Cholecystokinin type B receptor
T1 sequence (P56481 whole entry): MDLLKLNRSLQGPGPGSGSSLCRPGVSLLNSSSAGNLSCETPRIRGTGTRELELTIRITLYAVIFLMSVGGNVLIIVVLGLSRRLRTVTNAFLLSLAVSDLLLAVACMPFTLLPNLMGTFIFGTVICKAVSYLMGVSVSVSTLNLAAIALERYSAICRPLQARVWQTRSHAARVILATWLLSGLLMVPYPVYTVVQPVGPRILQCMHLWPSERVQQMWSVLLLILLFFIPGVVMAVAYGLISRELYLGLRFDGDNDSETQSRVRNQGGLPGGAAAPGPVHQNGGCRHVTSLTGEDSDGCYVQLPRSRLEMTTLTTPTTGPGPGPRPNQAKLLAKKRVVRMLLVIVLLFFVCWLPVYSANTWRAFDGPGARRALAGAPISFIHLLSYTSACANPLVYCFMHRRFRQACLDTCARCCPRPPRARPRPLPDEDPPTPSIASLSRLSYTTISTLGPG

[2] = target: T2, Cholecystokinin receptor type A (Mus musculus, UniProt O08786); assay: Inhibitory activity against Cholecystokinin type A receptor
T2 sequence (O08786 whole entry): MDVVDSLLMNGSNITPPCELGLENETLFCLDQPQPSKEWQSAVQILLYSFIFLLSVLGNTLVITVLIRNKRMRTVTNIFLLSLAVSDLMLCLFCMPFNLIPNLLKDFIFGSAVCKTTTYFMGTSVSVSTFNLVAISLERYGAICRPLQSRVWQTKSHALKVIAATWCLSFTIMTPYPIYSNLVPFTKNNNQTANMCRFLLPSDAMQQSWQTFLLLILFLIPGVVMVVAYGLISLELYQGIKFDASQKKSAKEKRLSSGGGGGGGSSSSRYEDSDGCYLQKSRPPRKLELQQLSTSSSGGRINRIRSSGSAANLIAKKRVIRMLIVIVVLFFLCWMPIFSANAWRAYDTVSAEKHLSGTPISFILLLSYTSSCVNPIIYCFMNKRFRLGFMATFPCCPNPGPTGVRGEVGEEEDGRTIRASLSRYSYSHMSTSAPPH

Histamine H2 receptor = Histamine H2 receptor (Rattus norvegicus, UniProt P25102); assay: Antagonistic activity by inhibition histamine H2 receptor from rats.; assay type: functional; conditions: read-out: pA2 (converted)
Sequence of Histamine H2 receptor (P25102 whole entry): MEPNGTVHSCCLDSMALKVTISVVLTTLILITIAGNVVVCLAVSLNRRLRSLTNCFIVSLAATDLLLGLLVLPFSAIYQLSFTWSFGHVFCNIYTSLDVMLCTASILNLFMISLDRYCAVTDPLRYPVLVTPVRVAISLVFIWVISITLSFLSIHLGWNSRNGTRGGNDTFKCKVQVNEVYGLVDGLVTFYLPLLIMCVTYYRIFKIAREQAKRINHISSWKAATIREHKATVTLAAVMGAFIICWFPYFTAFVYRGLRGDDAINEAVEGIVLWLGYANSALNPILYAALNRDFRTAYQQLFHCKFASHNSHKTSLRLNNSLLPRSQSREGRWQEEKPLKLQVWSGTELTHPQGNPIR

[3] = target: Cholecystokinin receptor (Mus musculus) (UniProt O08786+P56481); assay: Ratio of IC50(gastrin) to IC50(CCK-A); assay type: protein assay

Structure (SMILES) | pIC50 [1] | pIC50 [2] | Kb (Histamine H2 receptor) [nM] | Ratio [3]
CN1C(=O)[C@H](NC(=O)Nc2cccc(COC(=O)NCCCN3CCN(C(=O)CNCCCOc4cccc(CN5CCCCC5)c4)CC3)c2)N=C(c2ccccc2)c2ccccc21 | 6.40 | 5.78 | 316 | 183
CN1C(=O)[C@H](NC(=O)Nc2cccc(COC(=O)NCC(=O)NCCCOc3cccc(CN4CCCCC4)c3)c2)N=C(c2ccccc2)c2ccccc21 | 6.70 | 5.21 | 794 | 555
CN1C(=O)[C@H](NC(=O)Nc2cccc(COC(=O)NCCCC(=O)NCCCOc3cccc(CN4CCCCC4)c3)c2)N=C(c2ccccc2)c2ccccc21 | 7.19 | 5.44 | 251 | 138
CN1C(=O)[C@H](NC(=O)Nc2cccc(CCOC(=O)NCCCC(=O)NCCCOc3cccc(CN4CCCCC4)c3)c2)N=C(c2ccccc2)c2ccccc21 | 6.74 | 5.30 | 398 | 217
Cc1cccc(NC(=O)N[C@@H]2N=C(c3cccc(OC(=O)NCCCC(=O)NCCCOc4cccc(CN5CCCCC5)c4)c3)c3ccccc3N(C)C2=O)c1 | 6.34 | 5.42 | 501 | 17
Cc1cccc(NC(=O)N[C@@H]2N=C(c3ccccc3)c3ccccc3N(CCOC(=O)NCCCC(=O)NCCSCc3csc(N=C(N)N)n3)C2=O)c1 | 6.03 | 5.36 | 3160 | 289
CN1C(=O)[C@H](NC(=O)Nc2cccc(COC(=O)NCCNC(=O)CC(=O)NCCCOc3cccc(CN4CCCCC4)c3)c2)N=C(c2ccccc2)c2ccccc21 | 6.99 | 5.09 | 158 | 432
CN1C(=O)[C@H](NC(=O)Nc2cccc(COC(=O)NCCC(=O)NCCCOc3cccc(CN4CCCCC4)c3)c2)N=C(c2ccccc2)c2ccccc21 | 6.80 | 6.51 | 316 | 9
CN1C(=O)[C@H](NC(=O)Nc2cccc(COC(=O)NCCN3CCN(C(=O)CNCCCOc4cccc(CN5CCCCC5)c4)CC3)c2)N=C(c2ccccc2)c2ccccc21 | 7.35 | 6.13 | 631 | 106
CN1C(=O)[C@H](NC(=O)Nc2cccc(CCOC(=O)NCCCC(=O)NCCSCc3csc(N=C(N)N)n3)c2)N=C(c2ccccc2)c2ccccc21 | 6.52 | 5.89 | 794 | 35
Cc1cccc(NC(=O)N[C@@H]2N=C(c3ccccc3)c3ccccc3N(CCOC(=O)NCCCC(=O)NCCCOc3cccc(CN4CCCCC4)c3)C2=O)c1 | 5.40 | 5.34 | 1000 | 34
CN1C(=O)[C@H](NC(=O)Nc2cccc(CCOC(=O)NCCC(=O)NCCCOc3cccc(CN4CCCCC4)c3)c2)N=C(c2ccccc2)c2ccccc21 | 7.03 | 5.38 | 1260 | 156
CC(C)(C)OC(=O)NCCCC(=O)NCCSCc1csc(N=C(N)N)n1 |  |  | 50.1 | 
CC(C)(C)OC(=O)NCCCC(=O)NCCCOc1cccc(CN2CCCCC2)c1 |  |  | 15.8 | 
